According to US20220332764A1, “T CELL EPITOPES OF HCMV AND USES OF THEREOF” (EBERHARD KARLS UNIVERSITÄT TÜBINGEN, priority 2019, published 2022):
“And” between values parts separate entries of the source, which are not always exact repeats. Identical values can stand only once. Like-named read-outs stand apart in the source and are kept apart here.

Key:
[1] = test system: PBMCs of healthy HCMV-seropositive donors; experiment: IFNγ ELISpot after 12 day stimulation (memory T-cell response); assay type: cell-based, human; settings: for % Positive donors (after 12 days of stimulation): IFNγ ELISpot, HLA-matched seropositive donors; for ELISpot response rate (12 d stim.): 12-day amplification with IL-2 in vitro; for Positive donors as tested: positive / tested HLA-matched seropositive donors, positive: >10 spots/well and at least 3-fold negative control; for Binding to more than one HLA-I allotype: stimulated T cells of different donors harboring either of two well predicted alleles
Source text: (§1) PHA was used as positive control.

[2] = test system: CD8+ / CD4+ T cells of donor PBMCs; experiment: Intracellular cytokine staining (ICS; IFNγ, TNFα, CD107a); assay type: cell-based, human; settings: for Intracellular staining: responding T-cell subset; for Intracellular cytokine staining: responding T-cell subset after peptide stimulation
Source text: PHA was used as positive control. […] (Cytofix/Cytoperm, BD Biosciences).

[3] = test system: PBMCs of healthy HCMV-seropositive donors; experiment: ex vivo IFNγ ELISpot without prestimulation; assay type: cell-based, human; settings: for % Positive donors (ex vivo): IFNγ ELISpot ex vivo, donors previously tested positive; for ELISpot response rate (ex vivo): donors positively tested in ELISpots with 12d stimulation
Source text: as §1

[4] = test system: CD8+ T cells of HLA-matched healthy donors; settings: for Tetramer-staining: after 12 day amplification

Sequence | % Positive donors (after 12 days of stimulation) [1] | ELISpot response rate (12 d stim.) ([1]; Tested HLA B*51:01) | Positive donors as tested [1] | Intracellular staining ([2]; Tested HLA B*51:01) | Intracellular cytokine staining [2] | % Positive donors (ex vivo) [3] | ELISpot response rate (ex vivo) ([3]; Tested HLA B*51:01) | Tetramer staining ([4]; Tested HLA B*51:01) | Tetramer-staining [4] | also measured
FPVEVRSHV (listed as Human cytomegalovirus) [SEQ ID NO: 88] | 65.2% | 65.2 | 15/23 | CD8 | CD8 | 0.0% | 0.0 | positive | Positive | 
GLYTQPRWK (listed as Human cytomegalovirus) [SEQ ID NO: 67] | 76.2% |  | 16/21 |  | CD8 | 50.0% |  |  | Positive | ELISpot response rate (12 d stim.) ([1]; Tested HLA A*03:01): 76.2; Intracellular staining ([2]; Tested HLA A*03:01): CD8; ELISpot response rate (ex vivo) ([3]; Tested HLA A*03:01): 50.0; Tetramer staining ([4]; Tested HLA A*03:01): positive
GVLDAVWRV (listed as Human cytomegalovirus) [SEQ ID NO: 1] | 72.2% |  | 13/18 |  | CD8 | 50.0% |  |  | Positive | ELISpot response rate (12 d stim.) ([1]; Tested HLA A*02:01): 72.2; Intracellular staining ([2]; Tested HLA A*02:01): CD8; ELISpot response rate (ex vivo) ([3]; Tested HLA A*02:01): 50.0; Tetramer staining ([4]; Tested HLA A*02:01): positive
HETGVYQMW (listed as Human cytomegalovirus) [SEQ ID NO: 41] | 65.4% |  | 17/26 |  | CD8 | 62.5% |  |  | Positive | ELISpot response rate (12 d stim.) ([1]; Tested HLA B*44:02): 65.4; Intracellular staining ([2]; Tested HLA B*44:02): CD8; ELISpot response rate (ex vivo) ([3]; Tested HLA B*44:02): 62.5; Tetramer staining ([4]; Tested HLA B*44:02): positive
ITEIALDRY (listed as Human cytomegalovirus) [SEQ ID NO: 54] | 58.3% |  | 14/24 |  | CD8 | 14.3% |  |  | Positive | ELISpot response rate (12 d stim.) ([1]; Tested HLA A*01:01): 58.3; Intracellular staining ([2]; Tested HLA A*01:01): CD8; ELISpot response rate (ex vivo) ([3]; Tested HLA A*01:01): 14.3; Tetramer staining ([4]; Tested HLA A*01:01): positive
LPHERHREL (listed as Human cytomegalovirus) [SEQ ID NO: 100] |  |  | 20/22 and 3/12 |  | CD8 | 85.7% |  |  | positive | ELISpot response rate (12 d stim.) ([1]; Tested HLA B*08:01): 90.9; Binding to more than one HLA-I allotype [1]: potentially able to bind to more than one HLA-I allotype; Intracellular staining ([2]; Tested HLA B*08:01): CD8; ELISpot response rate (ex vivo) ([3]; Tested HLA B*08:01): 85.7; Tetramer staining ([4]; Tested HLA B*08:01): positive
LPLKMLNI (listed as Human cytomegalovirus) [SEQ ID NO: 87] | 80.0% | 80.0 | 12/15 | CD8 | CD8 | 87.5% | 87.5 | positive | Positive | 
LPYPRGYTL (listed as Human cytomegalovirus) [SEQ ID NO: 99] | 68.8% and 62.5% | 62.5 | 11/16 and 10/16 | CD8 | CD8 | 16.7% and 33.3% | 33.3 | positive | positive | Response in mismatch ELISpots ([1]; B*08-/B*51− PBMC samples): showed responses; ELISpot response rate (12 d stim.) ([1]; Tested HLA B*08:01): 68.8; Binding to more than one HLA-I allotype [1]: potentially able to bind to more than one HLA-I allotype; Intracellular staining ([2]; Tested HLA B*08:01): CD8; ELISpot response rate (ex vivo) ([3]; Tested HLA B*08:01): 16.7; HLA restriction demonstrated by tetramer stainings [4]: B*08 and B*51 restriction; Tetramer staining ([4]; Tested HLA B*08:01): positive
